The results in this text go back to patent publication US11332476B2, “Fms-like tyrosine kinase inhibitors” (3SM BIOTRON INC., priority 2018, dated 2022).

Each structure is given as a SMILES string. Where only a bound is given, the exact number is not on record here.

This assay deals with T1, FLT3 (Homo sapiens, UniProt P36888).
T1 sequence (P36888 27-993): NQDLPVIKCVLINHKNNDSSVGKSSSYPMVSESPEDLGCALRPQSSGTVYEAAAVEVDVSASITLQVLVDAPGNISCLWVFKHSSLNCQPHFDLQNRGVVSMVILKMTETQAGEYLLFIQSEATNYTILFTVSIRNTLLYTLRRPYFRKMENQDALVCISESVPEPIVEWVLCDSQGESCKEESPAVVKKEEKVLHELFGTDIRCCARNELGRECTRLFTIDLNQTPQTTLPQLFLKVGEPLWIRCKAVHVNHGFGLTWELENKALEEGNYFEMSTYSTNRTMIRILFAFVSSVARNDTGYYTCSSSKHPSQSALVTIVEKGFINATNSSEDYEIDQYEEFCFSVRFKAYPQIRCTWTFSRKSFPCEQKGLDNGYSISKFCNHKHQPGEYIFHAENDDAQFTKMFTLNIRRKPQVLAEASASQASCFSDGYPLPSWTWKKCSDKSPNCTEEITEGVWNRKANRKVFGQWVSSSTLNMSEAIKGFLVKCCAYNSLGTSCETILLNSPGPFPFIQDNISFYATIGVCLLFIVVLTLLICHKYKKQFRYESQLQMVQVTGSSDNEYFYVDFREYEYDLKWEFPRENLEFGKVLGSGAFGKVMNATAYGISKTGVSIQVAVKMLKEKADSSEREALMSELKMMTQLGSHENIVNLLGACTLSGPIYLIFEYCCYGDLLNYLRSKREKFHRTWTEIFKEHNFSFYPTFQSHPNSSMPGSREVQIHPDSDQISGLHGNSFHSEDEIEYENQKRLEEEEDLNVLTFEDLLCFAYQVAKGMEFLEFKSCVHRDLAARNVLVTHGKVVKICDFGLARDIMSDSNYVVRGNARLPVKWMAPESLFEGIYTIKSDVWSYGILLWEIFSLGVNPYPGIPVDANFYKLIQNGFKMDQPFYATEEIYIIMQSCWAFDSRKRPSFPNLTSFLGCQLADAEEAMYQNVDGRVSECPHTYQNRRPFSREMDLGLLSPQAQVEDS
As to the kind of experiment: Inhibition of FLT3, 33P-ATP kinase assay with filter-binding detection. In kind it is biochemical. As to conditions: 33P-ATP 10 uM, 2 hours at room temperature, filter-binding method. The method, then: Prepare indicated substrate in freshly prepared Base Reaction Buffer (20 mM Hepes (pH 7.5), 10 mM MgCl2, 1 mM EGTA, 0.02% Brij35, 0.02 mg/ml BSA, 0.1 mM Na3VO4, 2 mM DTT, 1% DMSO). Deliver any required cofactors to the substrate solution above. Deliver indicated kinase into the substrate solution and gently mix. The testing compounds in DMSO was added into the kinase reaction mixture by Acoustic technology (Echo550; nanoliter range) and incubated for 20 minutes at room temperature. Deliver 33P-ATP (specific activity […]) into the reaction mixture to initiate the reaction. Incubate kinase reaction for 2 hours at room temperature. Reactions are spotted onto P81 ion exchange paper. Detect kinase activity by filter-binding method.
Inhibition of FLT3 with 4-Quinolone Derivatives
Take `NCCNc1nc2ccccc2c2c(=O)c3cc(Cl)ccc3sc12` [compound 7767, 6-(2-aminoethylamino)-10-cholor-12H-thiochromeno[2,3-c]quinolin-12-one]: the IC50 is below 0.051 µM.

`O=c1c2cc(F)ccc2sc2c(OCCO)nc3ccccc3c12` [compound 7728, 10-fluoro-6-(2-hydroxyethoxy)-12H-thiochromeno[2,3-c]quinolin-12-one]: the IC50 is above 1 µM.

Compound `COc1ccc2sc3c(NCCCN(C)C)nc4ccccc4c3c(=O)c2c1` [compound 7735, 6-(3-(dimethylamino)propylamino)-10-methoxy-12H-thiochromeno[2,3-c]quinolin-12-one] gave an IC50 above 1 µM.

On to `O=c1c2cc(F)ccc2sc2c(NCCCNCCO)nc3ccc(Cl)cc3c12` [compound 7406, 2-chloro-10-fluoro-6-(3-(2-hydroxyethylamino)propylamino)-12H-thiochromeno[2,3-c]quinolin-12-one], for which the IC50 is above 1 µM.

As to `O=c1c2cc(F)ccc2sc2c(Nc3ccncc3)nc3ccccc3c12` [compound 7763, 10-fluoro-6-(pyridin-4-ylamino)-12H-thiochromeno[2,3-c]quinolin-12-one], the IC50 is above 1 µM.

Turning to `Cc1ccc2sc3c(NCCN)nc4ccccc4c3c(=O)c2c1` [compound 7231, 6-(2-aminoethylamino)-10-methyl-12H-thiochromeno[2,3-c]quinolin-12-one], the IC50 was below 0.051 µM.

Turning to `NCCNc1nc2ccc(F)cc2c2c(=O)c3cc(F)ccc3sc12` [compound 7422, 6-(2-aminoethylamino)-2,10-difluoro-12H-thiochromeno[2,3-c]quinolin-12-one], the IC50 was above 1 µM.

`Nc1nc2ccccc2c2c1S(=O)(=O)c1ccc(Cl)cc1C2=O` [compound 7001, 6-Amino-10-chloro-12H-thiochromeno[2,3-c]quinolin-12-one 7,7-dioxide]: the IC50 was above 1 µM.

Compound `NCCNc1nc2ccccc2c2c(=O)c3cc(F)ccc3sc12` [compound 7754, 6-(2-aminoethylamino)-10-fluoro-12H-thiochromeno[2,3-c]quinolin-12-one] gave an IC50 below 0.051 µM.

Take `Cc1ccc2sc3c(NCCCNCCO)nc4ccccc4c3c(=O)c2c1` [compound 7215, 6-(3-(2-hydroxyethylamino)propylamino)-10-methyl-12H-thiochromeno[2,3-c]quinolin-12-one]: the IC50 was in the range of 0.201 to 0.5 µM.

`O=c1c2cc(F)ccc2sc2c(NCCCN3CCCC3)nc3ccccc3c12` [compound 7753, 10-fluoro-6-(3-(pyrrolidin-1-yl)propylamino)-12H-thiochromeno[2,3-c]quinolin-12-one]: the IC50 is above 1 µM.

In turn, `NCCCNc1nc2ccc(F)cc2c2c(=O)c3cc(F)ccc3sc12` [compound 7402, 6-(3-aminopropylamino)-2,10-difluoro-12H-thiochromeno[2,3-c]quinolin-12-one] showed an IC50 above 1 µM.

`CNCCNc1nc2ccccc2c2c(=O)c3cc(F)ccc3sc12` [compound 7752, 10-fluoro-6-(2-(methylamino)ethylamino)-12H-thiochromeno[2,3-c]quinolin-12-one] displayed a half-maximal inhibitory concentration (IC50) below 0.051 µM.

On to `O=c1c2cc(F)ccc2sc2c(N3CCCC3)nc3ccccc3c12` [compound 7747, 10-fluoro-6-(pyrrolidin-1-yl)-12H-thiochromeno[2,3-c]quinolin-12-one], for which the IC50 is above 1 µM.

`NCCCNc1nc2ccccc2c2c(=O)c3cc(F)cc(F)c3sc12` [compound 7252, 6-(3-aminopropylamino)-8,10-difluoro-12H-thiochromeno[2,3-c]quinolin-12-one] gave an IC50 of 0.201 to 0.5 µM.

`Nc1nc2ccccc2c2c(=O)c3cccc(Cl)c3sc12` [compound 7713, 6-Amino-8-chloro-12H-thiochromeno[2,3-c]quinolin-12-one] registered an IC50 above 1 µM.

Turning to `O=c1c2cc(F)cc(F)c2sc2c(NCCCNCCO)nc3ccccc3c12` [compound 7253, 8,10-difluoro-6-(3-(2-hydroxyethylamino)propylamino)-12H-thiochromeno[2,3-c]quinolin-12-one], the IC50 is above 1 µM.

The compound `COc1cccc2c(=O)c3c(sc12)c(N1CCNCC1)nc1ccccc13` [compound 7247, 8-methoxy-6-(piperazin-1-yl)-12H-thiochromeno[2,3-c]quinolin-12-one] came in with an IC50 of 0.051 to 0.2 µM.

The compound `O=c1c2cc(F)ccc2sc2c(Nc3ccccn3)nc3ccccc3c12` [compound 7760, 10-fluoro-6-(pyridin-2-ylamino)-12H-thiochromeno[2,3-c]quinolin-12-one] showed an IC50 above 1 µM.

In turn, `COCCNc1nc2ccccc2c2c(=O)c3cc(F)ccc3sc12` [compound 7745, 10-fluoro-6-(2-methoxyethylamino)-12H-thiochromeno[2,3-c]quinolin-12-one] yielded an IC50 above 1 µM.

Consider `COc1cccc2c(=O)c3c(sc12)c(NCCCN)nc1ccccc13` [compound 7212, 6-(3-aminopropylamino)-8-methoxy-12H-thiochromeno[2,3-c]quinolin-12-one], for which the IC50 was below 0.051 µM.

The compound `COc1cccc2c(=O)c3c(sc12)c(NCCN)nc1ccccc13` [compound 7244, 6-(2-aminoethylamino)-8-methoxy-12H-thiochromeno[2,3-c]quinolin-12-one] returned an IC50 below 0.051 µM.

With `O=c1c2cc(F)ccc2sc2c(-n3ccnc3)nc3ccccc3c12` [compound 7766, 10-fluoro-6-(1H-imidazol-1-yl)-12H-thiochromeno[2,3-c]quinolin-12-one], the IC50 is above 1 µM.

Turning to `O=c1c2cc(F)ccc2sc2c(NCCCNCCO)nc3ccc(F)cc3c12` [compound 7408, 2,10-difluoro-6-(3-(2-hydroxyethylamino)propylamino)-12H-thiochromeno[2,3-c]quinolin-12-one], the IC50 was above 1 µM.

`NCCNc1nc2ccccc2c2c(=O)c3cc(F)cc(F)c3sc12` [compound 7254, 6-(2-aminoethylamino)-8,10-difluoro-12H-thiochromeno[2,3-c]quinolin-12-one] returned an IC50 of 0.051 to 0.2 µM.

The compound `NCCCNc1nc2ccc(Cl)cc2c2c(=O)c3cc(F)ccc3sc12` [compound 7403, 6-((3-aminopropyl)amino)-2-chloro-10-fluoro-12H-thiochromeno[2,3-c]quinolin-12-one] returned an IC50 above 1 µM.

In the case of `NCCCNc1nc2ccccc2c2c(=O)c3cc(Cl)ccc3sc12` [compound 7704, 6-(3-aminopropylamino)-10-chloro-12H-thiochromeno[2,3-c]quinolin-12-one], the half-maximal inhibitory concentration (IC50) lay within 0.501 to 1 µM.

On to `CNCCCNc1nc2ccccc2c2c(=O)c3cc(OC)ccc3sc12` [compound 7734, 10-methoxy-6-(3-(methylamino)propylamino)-12H-thiochromeno[2,3-c]quinolin-12-one], for which the IC50 fell in the range of 0.501 to 1 µM.

As to `CCNc1nc2ccccc2c2c(=O)c3cc(C)ccc3sc12` [compound 7232, 6-(ethylamino)-10-methyl-12H-thiochromeno[2,3-c]quinolin-12-one], the IC50 is above 1 µM.

In the case of `O=c1c2cccc(F)c2sc2c(NCCCNCCO)nc3ccccc3c12` [compound 7224, 8-fluoro-6-(3-(2-hydroxyethylamino)propylamino)-12H-thiochromeno[2,3-c]quinolin-12-one], the IC50 fell in the range of 0.201 to 0.5 µM.

The compound `O=c1c2cc(F)ccc2sc2c(NCc3ccccc3)nc3ccc(F)cc3c12` [compound 7424, 6-(benzylamino)-2,10-difluoro-12H-thiochromeno[2,3-c]quinolin-12-one] had an IC50 above 1 µM.

Compound `COc1ccc2sc3c(NCCCN)nc4ccccc4c3c(=O)c2c1` [compound 7711, 6-(3-aminopropylamino)-10-methoxy-12H-thiochromeno[2,3-c]quinolin-12-one] came in with a half-inhibitory concentration (IC50) of 0.051 to 0.2 µM.

The compound `COc1cccc2c(=O)c3c(sc12)c(NCCCNCCO)nc1ccccc13` [compound 7225, 6-(3-(2-hydroxyethylamino)propylamino)-8-methoxy-12H-thiochromeno[2,3-c]quinolin-12-one] displayed an IC50 of 0.201 to 0.5 µM.

In turn, `Cc1ccc2sc3c(NCc4ccccc4)nc4ccccc4c3c(=O)c2c1` [compound 7233, 6-(benzylamino)-10-methyl-12H-thiochromeno[2,3-c]quinolin-12-one] showed an IC50 above 1 µM.
